Experimental data published in patent US9700637B2, “Reaction-based fluorescent probes for detecting zinc” (Massachusetts Institute of Technology, priority 2013, dated 2017).

Experiments:
HeLa cells = test: Live cell fluorescence imaging: localization, co-localization and uptake; format: cell-based; conditions: fluorescence microscopy, live HeLa cells (Table 1)
Experimental: FIG. 6 depicts live cell imaging of HeLa cells. 500 nM mitotracker Red was bath-applied along with 1 μM DA-ZP1-TPP for 30 min at 37° C. and 5% CO2. After exposure to 25 μM 1:2 zinc:pyrithione, fluorescent images were acquired and the co-localization of the two sensors was assessed. The calculated Pearson's correlation coefficient (r) was r=0.581±0.097 (n=9), which represents the average of 9 ROIs over three independent plates.
FIG. 14 depicts live cell imaging of HeLa cells. 1 μM Lysotracker Red was bath-applied along with 2 μM ZP1-TPP. The calculated Pearson's correlation coefficient (r) was r=0.45±0.15, which represents the average of 9 ROIs over three independent plates.
FIG. 24 depicts fluorescence images of live HeLa cells. HeLa cells were pretreated with a 1 μM solution of DA-ZP1-TPP in dye- and serum-free medium for 30 min (37° C., 5% CO2). […] The signal from MitoTracker Red (c) correlates well with the signal from the zinc-bound sensor (d). Pearson's r=0.64±0.1 (n=18).
FIG. 27 depicts deconvoluted fluorescence microscopy images of live HeLa cells pretreated with ZP1-R9 (5 μM) or DA-ZP1-R9 (2.5 μM) and the indicated organelle stain. Top, ZP1-R9: (a) Differential interference contrast (DIC) image, (b) signal from ZP1-R9, (c) signal from LysoTracker Red, (d) overlay of (b) and (c). Pearson's r=0.42±0.16 (n=8). Bottom, DA-ZP1-R9: (e) DIC, (f) signal from DA-ZP1-R9 after treatment with 25 μM ZnPT, (g) signal from Hoechst 33258, (h) overlay of (f) and (g). Scale bar=25 μm.
FIG. 29 depicts deconvoluted fluorescence microscopy images of live HeLa cells pretreated with 1 μM DA-ZP1-R9 and 100 nM Dextran Red. (a) Differential interference contrast (DIC), (b) signal from DA-ZP1-R9 after addition of 25 μM ZnPT (c) signal from Dextran Red, (d) overlay of (b) and (c). Pearson's r=0.55±0.12 (n=11). Scale bar=25 μm.
FIG. 31 depicts deconvoluted fluorescence microscopy images of ZP1-(Fxr)3 and DA-ZP1-r(Fxr)3 in live HeLa cells. Top, cells pretreated with medium containing 2.5 μM of ZP1-(Fxr)3: (a) Differential interference contrast (DIC) image, (b) signal from ZP1-(Fxr)3, (c) signal from Dextran Red, (d) overlay of (b) and (c). Pearson's r=0.71±0.07. Bottom, cells pretreated with 1 μM DA-ZP1-r(Fxr)3: (e) DIC, (f) signal from DA-ZP1-r(Fx)3 after treatment with 25 μM ZnPT, (g) signal from MitoTracker Red, (h) overlay of (f) and (g). Pearson's r=0.41±0.09. Scale bar=25 μm.
FIG. 33 depicts deconvoluted fluorescence microscopy images of DCF-r(Fxr)3 and DA-DCF-r(Fxr)3 in live HeLa cells. Top, cells pretreated with 5 μM DCF-r(Fxr)3 and 500 nM MitoTracker Red for 30 min. (a) differential contrast image (DIC), (b) signal from DCF-r(Fxr)3, (c) signal from MitoTracker Red. Bottom, cells pretreated with 5 μM DA-DCF-r(Fxr)3 and 500 nM MitoTracker Red for 30 min. (d) DIC, (e) signal from DCF-r(Fxr)3, (f) signal from MitoTracker Red. The global Pearson's r=0.57±0.16 (n=37). Cells with high levels of DA-DCF-r(Fxr)3 (e, red outline) have a higher Pearson's r=0.83±0.08 (n=10). Scale bar=25 μm.
We used HeLa cells as a model system to evaluate the ability of DA-ZP1-TPP to target mitochondria and respond to changes in intracellular zinc levels. […] Over a two-hour period, the fluorescence intensity from the sensor remained constant, implying that the acetylated form is stable against intracellular esterases (FIG. 24e). […] Addition of 100 μM TPEN attenuated the fluorescence signal by ˜2.4-fold (FIG. 24f). […]

[1] = Charge of predominate species in solution at physiological pH; format: physicochemical; conditions: physiological pH = 7.4
[2] = Octanol/aqueous buffer partition coefficient (modified shake-flask); format: physicochemical; conditions: octanol/water, buffered at pH 7 with 10 mM Tris
Text: To understand better the limitations of TPP in directing fluorophores to mitochondria, we prepared two additional TPP-derivatives, one based on 6-carboxyfluorescein (FL-TPP) and one on coumarin 343 (C343-TPP). […] To test this hypothesis, we conducted live cell fluorescence imaging experiments with FL-TPP. […] Not only did FL-TPP fail to accumulate in mitochondria, it was cell-impermeable under our imaging conditions. In contrast, the cationic C343-TPP strongly colocalized with MitoTracker Red in live HeLa cells (Pearson's r=0.72±0.02). To quantify the effect of hydrophobicity in mitochondrial-targeting, we measured the octanol/aqueous buffer partition coefficient (log P) for our TPP constructs and two MitoTracker dyes. We then tabulated the log P, charge of the predominate species in solution at physiological pH, and cellular localization for each dye (Table 1). […] Along with cationic charge, a minimum level of lipophilicity must be reached in order to evade endo/lysosomal sequestration and enable effective mitochondrial targeting.

[3] = Deacetylation kinetics monitored by UV-vis absorbance (metal-mediated and uncatalyzed hydrolysis); format: physicochemical; conditions: analogous conditions, EDTA or ZnCl2
Experimental: (§1) FIG. 23 depicts kinetic traces for the deacetylation of DA-ZP1-TPP. The half-life for deacetylation of a 2.75 μM solution of DA-ZP1-TPP, at 37° C. in 50 mM PIPES buffer (pH 7) and 100 mM KCl, was measured in the presence of 125 μM ZnCl2 (+Zn), 250 μM EDTA (−Zn), or 1.25 units of porcine liver esterase (Esterase). The change in absorbance at 520 nm (EDTA and esterase) or 510 nm (ZnCl2) was used to monitor the reaction.
FIG. 26 depicts in vitro characterization of DA-ZP1-A3. (a) UV-vis and (b) fluorescence spectra of a 5 μM solution of DA-ZP1-A3 in buffer (50 mM PIPES, 100 mM KCl; pH 7). Spectra were acquired initially, upon addition of 100 μM ZnCl2, and again after addition of 200 μM EDTA. (c) Time-dependent change in the normalized absorbance of a ca. 5 μM solution DA-ZP1-A3 at 37° C. in buffer (50 mM PIPES, 100 mM KCl; pH 7) in the presence of 100 μM ZnCl2 (λabs=510 nm) or EDTA (λabs=520 nm). (d) Integrated fluorescence intensity of a 1 μM solution of ZP1-A3 (circles) or DA-ZP1-A3 (squares) as a function of pH. […]
DA-ZP1-TPP has a zinc-induced fluorescence response and is relatively stable to uncatalyzed hydrolysis and esterase activity. […] Other late 3d-block transition metal ions, such as Co(II) and Cu(II), can coordinate to DA-ZP1-TPP but are generally not available in appreciable chelatable quantities within the cell. […]

porcine liver esterase = test: Deacetylation by porcine liver esterase (UV-vis absorbance); format: in vitro ADME; conditions: analogous conditions, porcine liver esterase
Experimental: as §1
DA-ZP1-TPP has a zinc-induced fluorescence response and is relatively stable to uncatalyzed hydrolysis and esterase activity. […] Other late 3d-block transition metal ions, such as Co(II) and Cu(II), can coordinate to DA-ZP1-TPP but are generally not available in appreciable chelatable quantities within the cell. In addition to monitoring selectivity in the fluorescence response, we used UV-vis spectroscopy to investigate the rate and zinc-specificity of metal-mediated ester hydrolysis. DA-ZP1-TPP deacetylation results in opening of the lactone ring and restoration of conjugation across the xanthene ring. By monitoring the absorbance of the xanthene it system, we could interrogate deacetylation kinetics in a manner that is independent of the fluorescence response. […] To determine whether ester hydrolysis depends on the metal-binding core of DA-ZP1-TPP, we measured the deacetylation kinetics of fluorescein diacetate (DA-FL) under analogous conditions. […]

Row | Charge of the predominate species in solution [1] | log P [2] | logP ([2]; octanol/aqueous buffer) | response to esterase (deacetylation) (porcine liver esterase) | SMILES | Localization (HeLa cells) | stability to hydrolysis and zinc-mediated deacetylation [3]
1 | +1 | 1.15 ± 0.04 |  |  | ClCc1ccc(C2=c3cc4c5c(c3Oc3c2cc2c6c3CCCN6CCC2)CCC[N+]=5CCC4)cc1.[Cl-] [Mitotracker Red, reference compound] | Mitochondria | 
2 | +1 |  | 0.56 ± 0.02 |  | CN1/C(=C/C=C/c2n(Cc3ccc(CCl)cc3)c3cc(Cl)c(Cl)cc3[n+]2Cc2ccc(CCl)cc2)Oc2ccccc21 [Mitotracker Green, reference compound] | Mitochondria | 
3 |  |  |  | responds rapidly to esterase | CC(=O)Oc1ccc2c(c1)Oc1cc(OC(C)=O)ccc1C21OC(=O)c2ccccc21 [DA-FL, fluorescein diacetate, reference compound] |  | relatively stable to hydrolysis and zinc-mediated deacetylation
4 | +1 | 0.72 ± 0.05 |  |  | O=C(NCC[P+](c1ccccc1)(c1ccccc1)c1ccccc1)c1cc2cc3c4c(c2oc1=O)CCCN4CCC3 [C343-TPP] | Mitochondria | 
